Experimental data: the supplement of paper PMC6045584
± gives the standard deviation of the averaged measurements.

What was measured:
SNX-5422 [1] = compound: T1, CC1(C)CC(=O)c2c(C(F)(F)F)nn(-c3ccc(C(N)=O)c(N[C@H]4CC[C@H](OC(=O)CN)CC4)c3)c2C1 [SNX-5422]; test: area under dose-response curve of surviving fraction (unscaled, Aref=0) (surviving fraction x log10(nM)); higher = more resistant; conditions: exposure time: 5 days; dose range 0.5-1000 nM
In short: (§1)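 Surviving fractions were fitted by 3-parameter logistic regression in the drc R package to give dose-response survival curves. They came from tumour cell lines treated for five days with eight inhibitor concentrations from 0.5 to 1000 nM and read by CellTiter-Glo luminescence against DMSO-only wells. The area under the curve is the unscaled activity area. It was calculated over log10 dose with Aref = 0.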

[2] = compound: Cn1cc(C2=Nc3cc(NC(=O)C(N)C4CCCCC4)cc4c3C2=CNNC4=O)cn1; test: as above; conditions: exposure time: 5 days; dose range 0.5-1000 nM
In short: as §1

BI-2536 [3] = compound: T2, CC[C@@H]1C(=O)N(C)c2cnc(Nc3ccc(C(=O)NC4CCN(C)CC4)cc3OC)nc2N1C1CCCC1 [BI-2536]; test: as above; conditions: exposure time: 5 days; dose range 0.5-1000 nM
In short: as §1

MDV3100 [4] = compound: T3, CNC(=O)c1ccc(N2C(=S)N(c3ccc(C#N)c(C(F)(F)F)c3)C(=O)C2(C)C)cc1F [MDV3100]; test: as above; conditions: exposure time: 5 days; dose range 0.5-1000 nM
In short: as §1

CANERTINIB [5] = compound: T4, C=CC(=O)Nc1cc2c(Nc3ccc(F)c(Cl)c3)ncnc2cc1OCCCN1CCOCC1 [CANERTINIB]; test: as above; conditions: exposure time: 5 days; dose range 0.5-1000 nM
In short: as §1

AFATINIB [6] = compound: T5, CN(C)C/C=C/C(=O)Nc1cc2c(Nc3ccc(F)c(Cl)c3)ncnc2cc1O[C@H]1CCOC1 [AFATINIB]; test: as above; conditions: exposure time: 5 days; dose range 0.5-1000 nM
In short: as §1

SAPACITABINE [7] = compound: T6, CCCCCCCCCCCCCCCC(=O)Nc1ccn([C@@H]2O[C@H](CO)[C@@H](O)[C@@H]2C#N)c(=O)n1 [SAPACITABINE]; test: as above; conditions: exposure time: 5 days; dose range 0.5-1000 nM
In short: as §1

SNX-5422 [8] = compound: T1, SNX-5422; test: surviving fraction relative to DMSO-only wells; higher = less growth inhibition; conditions: exposure time: 5 days
In short: (§2)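 Continuous five-day exposure to inhibitors at 0.5, 1, 5, 10, 50, 100, 500 and 1000 nM started 24 hours after log-phase tumour cell lines were seeded at 250–500 cells per well in 384-well plates. Luminescence was read after 10 minutes at room temperature. Viability is given as surviving fraction, meaning CellTiter-Glo luminescence normalised to the median of DMSO-only wells.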

[9] = compound: Cn1cc(C2=Nc3cc(NC(=O)C(N)C4CCCCC4)cc4c3C2=CNNC4=O)cn1; test: as above; conditions: exposure time: 5 days
In short: as §2

BI-2536 [10] = compound: T2, BI-2536; test: as above; conditions: exposure time: 5 days
In short: as §2

MDV3100 [11] = compound: T3, MDV3100; test: as above; conditions: exposure time: 5 days
In short: as §2

TIOGUANINE = compound: Nc1nc2[nH]cnc2c(=S)[nH]1 [TIOGUANINE]; test: as above; conditions: exposure time: 5 days
In short: as §2

CANERTINIB [12] = compound: T4, CANERTINIB; test: as above; conditions: exposure time: 5 days
In short: as §2

AFATINIB [13] = compound: T5, AFATINIB; test: as above; conditions: exposure time: 5 days
In short: as §2

SAPACITABINE [14] = compound: T6, SAPACITABINE; test: as above; conditions: exposure time: 5 days
In short: as §2

SG31 HEADNECK
area under dose-response curve (SNX-5422 [1]): 2.1
area under dose-response curve [2]: 2.91
area under dose-response curve (BI-2536 [3]): 2.2
area under dose-response curve (MDV3100 [4]): 3.39
area under dose-response curve (CANERTINIB [5]): 2.3
area under dose-response curve (AFATINIB [6]): 2.04
area under dose-response curve (SAPACITABINE [7]): 2.62
surviving fraction (SNX-5422 [8]; 0.5 nM): 1.03 ± 0.12
surviving fraction (SNX-5422 [8]; 1 nM): 1.09 ± 0.22
surviving fraction (SNX-5422 [8]; 5 nM): 1.05 ± 0.096
surviving fraction (SNX-5422 [8]; 10 nM): 0.876 ± 0.14
surviving fraction (SNX-5422 [8]; 50 nM): 0.61 ± 0.024
surviving fraction (SNX-5422 [8]; 100 nM): 0.187 ± 0.029
surviving fraction (SNX-5422 [8]; 500 nM): 0.0373 ± 0.0076
surviving fraction (SNX-5422 [8]; 1000 nM): 0.0403 ± 0.006
surviving fraction ([9]; 0.5 nM): 1.01 ± 0.076
surviving fraction ([9]; 1 nM): 1.06 ± 0.18
surviving fraction ([9]; 5 nM): 0.908 ± 0.1
surviving fraction ([9]; 10 nM): 0.901 ± 0.11
surviving fraction ([9]; 50 nM): 0.881 ± 0.11
surviving fraction ([9]; 100 nM): 0.825 ± 0.02
surviving fraction ([9]; 500 nM): 0.79 ± 0.021
surviving fraction ([9]; 1000 nM): 0.669 ± 0.052
surviving fraction (BI-2536 [10]; 0.5 nM): 1.09 ± 0.11
surviving fraction (BI-2536 [10]; 1 nM): 1.27 ± 0.057
surviving fraction (BI-2536 [10]; 5 nM): 0.77 ± 0.099
surviving fraction (BI-2536 [10]; 10 nM): 0.603 ± 0.03
surviving fraction (BI-2536 [10]; 50 nM): 0.531 ± 0.031
surviving fraction (BI-2536 [10]; 100 nM): 0.573 ± 0.029
surviving fraction (BI-2536 [10]; 500 nM): 0.49 ± 0.034
surviving fraction (BI-2536 [10]; 1000 nM): 0.438 ± 0.064
surviving fraction (MDV3100 [11]; 0.5 nM): 0.928 ± 0.059
surviving fraction (MDV3100 [11]; 1 nM): 1.06 ± 0.037
surviving fraction (MDV3100 [11]; 5 nM): 1.01 ± 0.14
surviving fraction (MDV3100 [11]; 10 nM): 1.02 ± 0.14
surviving fraction (MDV3100 [11]; 50 nM): 1.07 ± 0.057
surviving fraction (MDV3100 [11]; 100 nM): 0.969 ± 0.17
surviving fraction (MDV3100 [11]; 500 nM): 1.18 ± 0.18
surviving fraction (MDV3100 [11]; 1000 nM): 1.06 ± 0.028
surviving fraction (TIOGUANINE; 0.5 nM): 0.97 ± 0.023
surviving fraction (TIOGUANINE; 1 nM): 1 ± 0.085
surviving fraction (TIOGUANINE; 5 nM): 1 ± 0.16
surviving fraction (TIOGUANINE; 10 nM): 1.01 ± 0.18
surviving fraction (TIOGUANINE; 50 nM): 0.986 ± 0.073
surviving fraction (TIOGUANINE; 100 nM): 0.871 ± 0.1
surviving fraction (TIOGUANINE; 500 nM): 1.2 ± 0.25
surviving fraction (TIOGUANINE; 1000 nM): 0.928 ± 0.17
surviving fraction (CANERTINIB [12]; 0.5 nM): 0.935 ± 0.084
surviving fraction (CANERTINIB [12]; 1 nM): 0.907 ± 0.035
surviving fraction (CANERTINIB [12]; 5 nM): 0.811 ± 0.043
surviving fraction (CANERTINIB [12]; 10 nM): 0.688 ± 0.15
surviving fraction (CANERTINIB [12]; 50 nM): 0.63 ± 0.12
surviving fraction (CANERTINIB [12]; 100 nM): 0.581 ± 0.086
surviving fraction (CANERTINIB [12]; 500 nM): 0.588 ± 0.045
surviving fraction (CANERTINIB [12]; 1000 nM): 0.498 ± 0.1
surviving fraction (AFATINIB [13]; 0.5 nM): 0.967 ± 0.1
surviving fraction (AFATINIB [13]; 1 nM): 0.947 ± 0.046
surviving fraction (AFATINIB [13]; 5 nM): 0.62 ± 0.11
surviving fraction (AFATINIB [13]; 10 nM): 0.615 ± 0.18
surviving fraction (AFATINIB [13]; 50 nM): 0.515 ± 0.12
surviving fraction (AFATINIB [13]; 100 nM): 0.471 ± 0.13
surviving fraction (AFATINIB [13]; 500 nM): 0.528 ± 0.035
surviving fraction (AFATINIB [13]; 1000 nM): 0.452 ± 0.054
surviving fraction (SAPACITABINE [14]; 0.5 nM): 0.933 ± 0.053
surviving fraction (SAPACITABINE [14]; 1 nM): 0.946 ± 0.043
surviving fraction (SAPACITABINE [14]; 5 nM): 0.814 ± 0.079
surviving fraction (SAPACITABINE [14]; 10 nM): 0.464 ± 0.015
surviving fraction (SAPACITABINE [14]; 50 nM): 0.919 ± 0.071
surviving fraction (SAPACITABINE [14]; 100 nM): 0.947 ± 0.16
surviving fraction (SAPACITABINE [14]; 500 nM): 0.792 ± 0.072
surviving fraction (SAPACITABINE [14]; 1000 nM): 0.642 ± 0.033
